Here are results for three compounds from paper PMC11232401, “Characterization of antimalarial activity of artemisinin-based hybrid drugs” (Antimicrobial Agents and Chemotherapy, 2024).

Assay [1] has as its system quiescent ART-resistant parasites (F32-ART). As to the kind of experiment: Quiescent-stage survival assay (QSA). Format: cell-based, Plasmodium falciparum. To be noted: for Recrudescence time in days (median; range), Quiescent parasites (QSA) DHA / DHA + drug: then DHA plus 700 nM drug 48 h (condition B); for delay of recrudescence in the QSA versus DHA alone: threshold of activity 6 days. How it is done: The QSA was performed as previously described to determine the drug activity on quiescent ART-resistant parasites ([11]). F32-ART culture parasites were synchronized at the ring stage and adjusted to 3% parasitemia and 2% hematocrit. […] At the end of treatment, parasites from each of the three conditions were washed with RPMI-1640 medium and replaced in new wells in a drug-free culture medium with 10% human serum. Parasitemia was determined daily by thin blood smears until the cultures reached their initial parasitemia (3%), which was defined as the recrudescence day ([11]). The recrudescence capacity of parasites exposed in conditions A and B was compared to determine whether the drug was active on quiescent parasites. Condition C was designed to check that the concentration at which the drug was tested acted on proliferating parasites. If no parasite recrudescence was observed, the experiment was stopped.

Assay [2] relates to ring stages of NF54 strain of P. falciparum. As to the kind of experiment: Exposure time dependence in drug activity (pLDH). Format: cell-based. Conditions: Plasmodium falciparum. How it is done: Each well of 96-well plates was filled with 100 µL drug and 100 µL culture containing ring-stage P. falciparum (NF54 strain) parasites, which were mixed to obtain a final parasitemia of 1.0% to 1.5% and 1.0% hematocrit. Plates were incubated at 37°C in a standard gas mixture. After 3 h and 6 h, plates were centrifuged, cell pellets were washed as described above then returned to the incubator for an additional 69 h and 66 h, respectively. In parallel, the same experiment was left without the washing step, enabling continuous drug exposure throughout. Plates were processed using the pLDH method, and IC50 values were calculated as described above. Three independent experiments were performed using two technical replicates.
Figure S2: Exposure time dependence of antiparasitic activity against ring stages of CQ-sensitive strain NF54 of P. falciparum. Data associated to Figure 2B in the main text of the manuscript. Footnotes for table: ^[a] Synchronized ring-stage parasites were incubated in the presence of compounds at indicated times, drugs were removed by washing, and plates were incubated until 72 h.^[b] Parasites were incubated in the presence of compounds for 72 h. ^[a,b^] Experiments were performed in parallel (paired). Parasite viability was determined by parasite lactate dehydrogenase (pLDH) assay. Data are from three experiments performed in duplicate.^ [c] […] MFQ = mefloquine. DHA = dihydroartemisinin; SEM = standard error of the mean; N.S. = not statistically significant.

Assay [3] relates to F32-ART (ART-resistant) strain of P. falciparum. As to the kind of experiment: Standard chemosensitivity assay (SYBR Green I, 48 h). Format: cell-based. To be noted: Plasmodium falciparum, F32, 48 h. How it is done: Compounds were dissolved in DMSO and diluted in RPMI-1640 medium into five different concentrations (0.1–1000 nM). Each well of 96-well plates was filled with 100 µL drug at each concentration and 100 µL synchronized ring-stages of the ART-resistant strain F32-ART or its ART-susceptible twin strain F32-TEM at final parasitemia of 1% and 2% hematocrit. Plates were incubated for 48 h at 37°C and 5% CO2. The drugs were washed out in 1× phosphate-buffered saline (PBS) (Sigma-Aldrich), the plates were frozen and thawed, and then, the lysed parasites were transferred to black 96-well plates. SYBR Green I (Fisher Scientific, Illkirch, France) at a 2× concentration in a lysis buffer (20 mM TRIS base, pH 7.5, 20 mM EDTA, 0.008% wt/vol saponin, 0.08% wt/vol Triton X-100) was then added and the plates were incubated for 1 h at room temperature in the dark. Fluorescence was measured at 485 nm excitation and 528 nm emission in a VICTOR Nivo plate reader (Perkin Elmer, Waltham, USA) and the IC50s values were then calculated using Prism 7 (GraphPad, San Diego, USA).
^[a] Parasites were exposed for 48 h of incubation in the presence of drugs, then parasite viability was determined using SYBR Green I. Mean of two independent experiments. DHA = dihydroartemisinin; SD = standard deviation.

Assay [4] relates to D10 strain of P. falciparum. As to the kind of experiment: Host cell-mediated drug degradation: antiplasmodial activity of uRBC supernatants. Format: cell-based, Plasmodium falciparum. Conditions: uRBC 1.0% hematocrit; for IC50: Plasmodium falciparum, 0.16 h, D10, pLDH, median ± SEM, read-out: IC50 of supernatants harvested at 0.16 h; for Fold changes (24 h/0.16 h): D10. The method, then: (§1) Each well of 96-well plates was filled with 125 µL drug (1000 nM) and 125 µL uninfected red blood cells (uRBC), which were mixed to obtain a final drug concentration of 500 nM and 2.5% or 1.0% hematocrit. The plates were incubated at 37°C in the standard gas mixture. After each time point (10 min, 6 h, and 24 h), supernatants were carefully harvested and stored at −80°C until use. Untreated uRBC incubated at the same times were used as negative controls, and DHA and AQ were employed as standard drugs. Next, supernatants were diluted in a complete medium in six different dilutions and were aliquoted in new plates. The antimalarial activity of these supernatants and freshly dissolved drugs was determined in an asynchronous parasite culture of P. falciparum (3D7, D10, and W2 strains) for 72 h using the same method described above, and parasite viability was assessed by the pLDH ([38]) and SYBR Green I ([41]) methods. Only the experiments where the IC50 values of the supernatants harvested at 10 min were the same as those of the respective fresh drugs were considered for determining equivalent drug concentration. […] Decay in drug concentration was estimated by using the normalized slope values calculated from linear regression fits using the slope values of a standard curve as reference. Three independent experiments were performed using two replicates.
(§2) Figure S5: Data associated to Figure 3 in the main text of the manuscript. Panel A: Representative response-concentration curves of the antiplasmodial activity of supernatant-derived uRBC (2.5% hematocrit) harvested at indicated times (0.16, 6, and 24 h). Drug activity on parasite viability was determined 72 h after parasite incubation (3D7 strain, asynchronous). Values were subtracted from control (without treatment), transformed, and normalized to calculate nonlinear fit. Parasite viability was determined by SYBR Green I. Values are mean and error bars are the standard deviation of a single experiment, each concentration in duplicate. Panel B: A table summarizing the IC50 values. Footnotes: ^[a] Parasite viability was determined by SYBR Green I. ^[b^] Parasite viability was determined by pLDH readout. Values are median ± SEM of three independent experiments, each concentration in duplicate. ^[c^] […] These values are expressed as mean and 95% confidence interval (CI) of one experiment, each concentration in duplicate. AQ = amodiaquine; DHA = dihydroartemisinin; uRBC = uninfected red blood cells. Unpaired two-tailed t-test at 95% CI: *p <0.05; **p <0.01.

For assay [5], the system named is W2 strain (CQ-resistant) of P. falciparum. The assay is described as above. Format: cell-based, Plasmodium falciparum. Conditions: uRBC 1.0% hematocrit; for Fold changes (24 h/0.16 h): W2; for IC50: Plasmodium falciparum, 0.16 h, W2, pLDH, median ± SEM, read-out: IC50 of supernatants harvested at 0.16 h. How it is done: as §1, §2
[6] abbreviates: NF54, 6 h drug pulse, wash, incubated until 72 h, median ± SEM, read-out: IC50, 6 h + 66 h.
The mark [7] stands for this setting: NF54, 72 h continuous drug, median ± SEM, read-out: IC50, 72 h.
The mark [8] stands for this setting: NF54, read-out: IC50, 3 h + 69 h, 3 h drug pulse, wash, incubated until 72 h, median ± SEM.
The mark [9] stands for this setting: read-out: IC50 (nM, mean ± SD) for P. falciparum (48 h), F32-ART (ART-resistant).

Like-named read-outs stand apart in the source and are kept apart here.

Usually IC50 stands for the concentration needed to halve the response being measured. `COCCOCCOCCOCCn1c(-c2ccc(-n3cc(-c4ccc(OC5OC6OC7(C)CCC8C(C)CCC(C5C)C68OO7)cc4)nn3)cc2)nc2ccccc21` (centres unmarked) [Hybrid 1]: the “Recrudescence time in days (median; range), Quiescent parasites (QSA) DHA / DHA + drug” value in assay [1] (700 nM DHA 6 h) is 11.5 (11–12) days. Also, in assay [1], the “delay of recrudescence in the QSA versus DHA alone” value amounted to 0.5 days. The IC50 in assay [2] (setting [6]) amounted to 1.5 ± 0.3 nM; in assay [2] (setting [7]), 1.5 ± 0.1 nM; in assay [2] (setting [8]), 220 ± 80 nM; in assay [3] (setting [9]), 4.2 ± 1.3 nM; in assay [4] it was 1.8 ± 0.08 nM. The “Fold changes (24 h/0.16 h)” value in assay [4] came to 0.90 ± 0.08; in assay [5], 0.98 ± 0.22.

Regarding `C[C@H]1[C@@H](O)O[C@@H]2O[C@@]3(C)CC[C@H]4[C@H](C)CC[C@@H]1[C@@]24OO3` [DHA, dihydroartemisinin, reference compound], the “Recrudescence time in days (median; range), Quiescent parasites (QSA) DHA / DHA” value in assay [1] (700 nM DHA 6 h, then DHA alone 48 h (condition A)) is on record as 8.5 (8–9) days. For the same compound, the IC50 in assay [2] (setting [6]) is 5 ± 0.5 nM; in assay [2] (setting [7]), 1.9 ± 0.2 nM; in assay [2] (setting [8]), 100 ± 25 nM; in assay [3] (setting [9]), 0.8 ± 0.8 nM; in assay [3] (read-out: IC50 in the standard chemosensitivity assay) it was less than 5 nM; in assay [4] it was 3.5 ± 0.43 nM. Moreover, the IC50 in assay [5] is 1.9 ± 0.25 nM. Further, the “Fold changes (24 h/0.16 h)” value is on record as 19.9 ± 0.09 in assay [4] and 15.82 ± 2.21 in assay [5].

As to `CC1CCC2C(C)C(OC(=O)CCC(=O)OCCNc3ccnc4cc(Cl)ccc34)OC3OC4(C)CCC1C32OO4` (centres unmarked) [Hybrid 2], the “Recrudescence time in days (median; range), Quiescent parasites (QSA) DHA / DHA + drug” value in assay [1] (700 nM DHA 6 h) is listed as 9 (8–10) days. In assay [1], the “delay of recrudescence in the QSA versus DHA alone” value is reported as 3 days. Also, the IC50 was 9 ± 1.5 nM in assay [2] (setting [6]); 3.8 ± 0.4 nM in assay [2] (setting [7]); 75 ± 18 nM in assay [2] (setting [8]); 4.5 ± 2.5 nM in assay [3] (setting [9]); 3.7 ± 1.32 nM in assay [4]; 4.3 ± 1.74 nM in assay [5]. The “Fold changes (24 h/0.16 h)” value in assay [4] stood at 1.25 ± 0.46; in assay [5], 1.38 ± 0.15.
